Measured values: patent publication US11602534B2, “Pyrimidine derivative kinase inhibitors” (HEFEI INSTITUTES OF PHYSICAL SCIENCE, CHINESE ACADEMY OF …, priority 2017, dated 2023)

Columns and labels:
Tel-cKit/T670I-BaF3 = experiment: Proliferation of Tel-cKit/T670I-BaF3 cells, CCK8 cell viability assay; type: cell-based; details: Mus musculus, 72 hours, stably expressing cKIT/T670I
Summary of the method: (§1)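 Murine BaF3 cells made IL-3-independent by retroviral transduction of human kinase domains fused to N-terminal TEL or TPR fragments; parental BaF3 included. Living cells quantified by CCK8 (dehydrogenase activity) read-out, giving GI50 in μM.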

[1] = tested on: Chinese hamster lung (CHL) cells; experiment: cells; type: cell-based; details: Cricetulus griseus, 72 hours, Cell Titer-Glo
Experimental: (§2) In addition, in this example the inhibitory activity of preferred compounds (Compound 5 and Compound 135) was tested against the following cell strains: human acute myeloid leukemia cell strain MV4-11 (expressing FLT3/ITD mutant gene), human acute myeloid leukemia cell strain MOLM-13 (expressing FLT3/ITD mutant gene and wild-type FLT3 gene), human acute myeloid leukemia cell strain MOLM-14 (expressing FLT3/ITD mutant gene and wild-type FLT3 gene), human acute myeloid leukemia cell strain OCI-AML-3 (expressing FLT3 A680V mutant gene), human chronic lymphatic leukemia cell strain MEC-1, Chinese hamster lung (CHL) cells, Chinese hamster ovary (CHO) cells, wherein all the cells were purchased from ATCC. In the example the compounds of the present invention were added respectively into the above cells at different concentrations (0.000508 μM, 0.00152 μM, 0.00457 μM, 0.0137 μM, 0.0411 μM, 0.123 μM, 0.370 μM, 1.11 μM, 3.33 μM, 10 μM in DMSO) and the cells were incubated for 72 hours. The number of viable cells was determined by quantification of ATP in living cells using Cell Titer-Glo® (Promega, the USA) Luminescent Cell Viability Assay kit and thereby GI50 was calculated.

[2] = tested on: Chinese hamster ovary (CHO) cells; experiment: cells; type: cell-based; details: Cricetulus griseus, 72 hours, Cell Titer-Glo
Experimental: as §2

Tel-FLT3-BaF3 = experiment: Proliferation of Tel-FLT3-BaF3 cells, CCK8 cell viability assay; type: cell-based; details: Mus musculus, 72 hours, stably expressing FLT3 kinase
Summary of the method: as §1

TEL-VEGFR2-BaF3 = experiment: Proliferation of TEL-VEGFR2-BaF3 cells, CCK8 cell viability assay; type: cell-based; details: Mus musculus, 72 hours, stably expressing VEGFR2 kinase
Summary of the method: as §1

C-Myc = experiment: Degradation of C-Myc in AML cells; type: cell-based, human; details: MV-4-11, MOLM13 and MOLM-14; 4 hours; compounds 0.01-3 μM, PKC412 1 μM
Experimental: In cells having FLT3 gene and/or FLT3/ITD mutant gene, specifically, human acute myeloid leukemia cells MV4-11 (expressing FLT3/ITD mutant gene) cell strain and human acute myeloid leukemia cells MOLM-13 and MOLM-14 (expressing FLT3/ITD mutant gene and wild-type FLT3 gene) cell strains, Compound 5, Compound 135 and a FLT3 kinase inhibitor, PKC412 (purchased from Hao Yuan Chemexpress Company, Shanghai), which was used as the control, were evaluated for their effects in cells on phosphorylation of FLT3 and FLT3/ITD protein kinase and phosphorylation of the closely-related STATS protein which is downstream of FLT3 signaling pathways, as well as their effects on phosphorylation of other relevant protein kinases such as ERK and AKT, by assaying a number of cellular biochemical and functional endpoints. In addition, the effects on C-Myc and phosphorylation of the transcription factor NF-κB subunit p65 was also examined (FIGS. 1a-1f). Compound 5 and Compound 135 at different concentrations (0 μM, 0.01 μM, 0.03 μM, 0.1 μM, 0.3 μM, 1 μM, 3 μM in DMSO) and the FLT3 kinase inhibitor PKC412 (1 μM in DMSO) were used to treat acute myeloid leukemia cells MV-4-11, MOLM13 and MOLM-14 that had FLT3 and/or FLT3/ITD gene for 4 hours, respectively, and then the samples were collected. The effects of the compounds on the phosphorylation of proteins such as STATS, C-Myc, ERK, NF-κB p65, AKT in cells were tested (FIGS. 1a-1f).

P210/T315I-BaF3 = experiment: Proliferation of P210/T315I-BaF3 cells, CCK8 cell viability assay; type: cell-based; details: Mus musculus, 72 hours, stably expressing BCR-ABL/T315I
Summary of the method: as §1

Structure (SMILES) | GI50 (Tel-cKit/T670I-BaF3) | GI50 [1] | GI50 [2] | GI50 (Tel-FLT3-BaF3) | GI50 (TEL-VEGFR2-BaF3) | degradation of C-Myc (C-Myc) | GI50 (P210/T315I-BaF3)
CC(=O)Nc1cc(Oc2ccc(NC(=O)Cc3ccc(F)cc3F)cc2)ncn1 [Example 5, N-[4-(6-acetylamino-pyrimidin-4-yloxy)-phenyl]-2-(2,4-difluoro-phenyl)-acetamide] | > 10000 nM | > 10000 nM | > 10000 nM | 746 nM | 357 nM | significant effects on the degradation | –
CC(=O)Nc1cc(Oc2ccc(NC(=O)Cc3ccccc3C(F)(F)F)cc2)ncn1 [Example 135, N-[4-(6-acetylamino-pyrimidin-4-yloxy)-phenyl]-2-(2-trifluoromethyl-phenyl)-acetamide] | > 10000 nM | > 10000 nM | > 10000 nM | 249 nM | 1440 nM | significant effects on the degradation | > 10000 nM
